Experimental data from patent US8802675B2, “Neuroprotective multifunctional compounds and pharmaceutical compositions comprising them” (priority 2009, dated 2014).
Values joined by “and” are separate entries in the source; they are usually repeats but may differ in a detail not shown here. Equal values may be shown once. Read-outs that look alike come from different tables or passages of the source.

Columns and labels:
rat brain MAO-B = molecular target: T1, rat brain MAO-B (Rattus norvegicus, UniProt P19643); experiment: biochemical; details: for inhibition at 10 µM: read-out: percent inhibition MAO-B
T1 construct: from tissue; host or cells: rat brain homogenate
T1 sequence (P19643 1-520): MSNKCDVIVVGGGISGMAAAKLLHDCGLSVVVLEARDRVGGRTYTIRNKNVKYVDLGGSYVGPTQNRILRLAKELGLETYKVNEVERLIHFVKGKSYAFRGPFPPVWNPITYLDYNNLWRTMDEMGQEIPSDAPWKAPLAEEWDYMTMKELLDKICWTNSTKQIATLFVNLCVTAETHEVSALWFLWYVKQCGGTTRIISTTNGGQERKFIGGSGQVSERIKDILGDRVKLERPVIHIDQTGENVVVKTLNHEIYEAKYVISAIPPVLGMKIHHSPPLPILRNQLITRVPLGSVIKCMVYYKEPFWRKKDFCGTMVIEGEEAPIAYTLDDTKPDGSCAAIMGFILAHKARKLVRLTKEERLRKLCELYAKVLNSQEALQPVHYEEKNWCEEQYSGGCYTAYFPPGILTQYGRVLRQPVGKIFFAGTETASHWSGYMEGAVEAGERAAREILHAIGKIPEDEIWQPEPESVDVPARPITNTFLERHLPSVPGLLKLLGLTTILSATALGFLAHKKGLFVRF
Experimental: Rats were decapitated and the brains were quickly taken into a pre-weighted ice-cold sucrose buffer (10 mM Tris-HCl buffer, pH 7.4, containing 0.32 M sucrose), and their weights were measured. The brains were homogenized at 0-4° C. in 0.32 M sucrose (one part tissue to 20 parts sucrose) in a Teflon glass homogenizer. The resultant homogenates were used to determine MAO activity. Protein concentration was determined with Bradford reagent at 595 nm, using bovine serum albumin as a standard.
The activity of MAO-A and MAO-B were determined by the adapted method of Tipton & Youdim (Tipton et al. 1983). Briefly, the multifunctional compound tested was added to a suitable dilution of the enzyme preparation (70 μg MAO-B and 150 μg MAO-A) in 0.05 M phosphate buffer (pH 7.4). The mixture was incubated together with 0.05 μM 1-deprenyl, a specific inhibitor of MAO-B (for determination of MAO-A activity in the presence of the test compound) or 0.05 μM clorgyline a specific inhibitor of MAO-A (for determination of MAO-B activity). […] The reaction was stopped with 2M ice-cold citric acid, and the radioactive metabolites (5-hydroxytryptaldehyde and phenylacetaldehyde) were extracted by addition of 2 ml of ethylacetate/toluene (1:1 vol/vol). The radioactivity contained in the organic phase was determined by liquid-scintillation counting in cpm units.
MAO-A and MAO-B activities were determined in rat brain homogenate in vitro following incubation with varying concentrations of the test compounds.
The results are the mean SEM, n=3 in triplicates.

[1] = molecular target: T2, rat brain cholinesterase (total ChE) (Rattus norvegicus, UniProt P37136); experiment: Kinetics of irreversible cholinesterase inhibition (Kitz-Wilson); type: biochemical; details: for kinact: pH 7.4, read-out: k+2 (carbamylation rate constant); for kinact/KI: pH 7.4, read-out: ki (second-order rate inhibition constant, approximated by k+2/Ki)
T2 construct: rows headed: Ki (dissociation constant for EI); other: rat brain total ChE; mean of 3-4 experiments; k+2 (carbamylation rate constant); other: from ki; rate of carba
T2 sequence (P37136 32-614): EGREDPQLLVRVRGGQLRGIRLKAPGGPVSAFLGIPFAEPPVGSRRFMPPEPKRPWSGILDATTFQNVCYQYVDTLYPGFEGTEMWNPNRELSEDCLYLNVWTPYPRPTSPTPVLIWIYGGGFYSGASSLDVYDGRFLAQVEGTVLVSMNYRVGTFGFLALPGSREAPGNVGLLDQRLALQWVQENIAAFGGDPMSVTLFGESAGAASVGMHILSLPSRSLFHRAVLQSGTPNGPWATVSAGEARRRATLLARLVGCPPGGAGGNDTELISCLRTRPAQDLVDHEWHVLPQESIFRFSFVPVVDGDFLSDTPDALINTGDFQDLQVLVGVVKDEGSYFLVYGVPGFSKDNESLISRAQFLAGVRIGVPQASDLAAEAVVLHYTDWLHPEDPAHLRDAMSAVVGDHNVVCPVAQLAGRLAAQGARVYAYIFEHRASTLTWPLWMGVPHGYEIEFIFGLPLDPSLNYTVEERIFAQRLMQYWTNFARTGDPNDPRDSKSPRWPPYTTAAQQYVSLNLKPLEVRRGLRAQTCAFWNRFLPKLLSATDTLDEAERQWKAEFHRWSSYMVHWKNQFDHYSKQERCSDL
Experimental: To determine kinetic constants of irreversible inhibition, cholinesterase from rat brain homogenates was incubated with the multifunctional compounds of the invention for designed time intervals in phosphate buffer pH 7.4.
The residual cholinesterase activity was immediately measured with the Ellman's colorimetric method after addition of 5,5′-dithiobis(2-nitrobenzoic) acid and 1 mM acetylthiocholine iodide. The inhibition kinetics were assessed according to Kitz-Wilson equation:
[formula] wherein: E represents the enzyme; I represents the intact carbamate (inhibitor); EI is the initial reversible enzyme complex; E* is the carbamylated enzyme; Ki represents the dissociation constant for EI; k+2 is the carbamylation rate constant and k+3 is the decarbamylation rate constant; kapp is the pseudo-first-order inhibition rate constant; ki, the second-order rate inhibition constant, is approximated by k+2/Ki. Under experimental condition [I]>>[E0].
According to equation (2), the logarithm of the ratio of the residual cholinesterase activity (E) and the initial cholinesterase activity (E0) is plotted against the time of incubation. The slopes of the lines representing kapp were determined by linear regression.
The slopes of the lines represent the pseudo-first-order inhibition rate constant (kapp) determined from linear regression analysis. […] The carbamylation rate constant (k+2) was obtained from the y-intercept, and the dissociation constant ([…] was obtained from the slope of the line multiplied by k+2 as described in Materials and Methods.
From these lines, the values of kapp were calculated based on Equation (2) of the Kitz-Wilson equations (see Material and Methods). […] The carbamylation rate constant k+2 is a measure of inactivation of ChE.

[2] = IC50 MAO-B, rat brain homogenate in vitro, mean SEM, n=3 in triplicates

## C#CCN(C)Cc1ccc(OC(=O)N(C)CC)c2ncccc12 [Compound 3, 5-((methyl(propargyl)amino)methyl)quinolin-8-yl ethyl(methyl)carbamate]
Rat brain MAO-B
  inhibition at 10 µM: 9%
[1]
  kinact: 0.0045 s⁻¹
  kinact/KI: 39 M⁻¹ s⁻¹

## C#CCN(C)Cc1ccc(OC(=O)N2CCCC2)c2ncccc12 [Compound 5, 5-((methyl(propargyl)amino)methyl)quinolin-8-yl pyrrolidine-1-carboxylate]
Rat brain MAO-B; [2]
  IC50: 5.06 µM and 5.6 µM
[1]; from ki
  potency in inhibiting ChE relative to rivastigmine: half potent
[1]
  kinact: 0.00283 s⁻¹
  kinact/KI: 41 M⁻¹ s⁻¹

## C#CCN(C)Cc1ccc(OC(=O)N2CCN(Cc3ccccc3)CC2)c2ncccc12 [Compound 13, 5-((methyl(propargyl)amino)methyl)quinolin-8-yl 4-benzyl piperazine-1-carboxylate]
Rat brain MAO-B; [2]
  IC50: 0.084 µM
[1]
  kinact: 0.00167 s⁻¹
  kinact/KI: 168 M⁻¹ s⁻¹

## C#CCC1CCN(Cc2ccc(OC(=O)N(C)C)c3ncccc23)CC1 [Compound 23, 5-((4-(propargyl)piperidin-1-yl)methyl)quinolin-8-yl dimethylcarbamate]
Rat brain MAO-B; rat brain homogenate
  inhibitory effect on MAO-B: minor to none inhibitory effects
Rat brain MAO-B
  inhibition at 10 µM: 3%
[1]
  kinact: 0.00233 s⁻¹
  kinact/KI: 242 M⁻¹ s⁻¹

## C#CCN(C)Cc1ccc(O)c2ncccc12 [M30, reference compound]
Rat brain MAO-B
  IC50: 0.057 ± 0.01 µM
